Data from patent US9725490B2, “ERAP1-derived peptide and use thereof” (TOKUSHIMA UNIVERSITY, priority 2011, dated 2017).
Where a SMILES comes first, the peptide text is derived from it. The star is where a group is joined. Cbz = O=C(OCc1ccccc1)*

Legend:
[1] = tested on: phosphorylation of ERAP1 and PHB2/REA; experiment: PKA inhibition by H-89, immunoblotting of ERAP1 and PHB2/REA phosphorylation, MCF-7; type: cell-based, human
Description: Then, the cell lysate solution was immunoprecipitated with anti-ERAP1 antibody. Furthermore, the phosphatase activity of the obtained sample was calculated. […] MCF-7 cells suppressed for expression of PKA or PKB, or both of PKA and PKB by siRNA method, were treated with 10 μM ERAP1 peptide. Then, immediately, the cells were stimulated with 10 nM E2 for 24 hours. […] MCF-7 cells were treated with H-89 for 30 minutes and washed with PBS. Then, the cells were treated with 10 μM ERAP1-PEPTIDE. Then, immediately, the cells were stimulated with 10 nM E2 for 24 hours. […] (S39) is caused. MCF-7 cells suppressed for expression of PKA by siRNA method, were stimulated with 10 nM E2 for 24 hours. In addition, MCF-7 cells were treated with H-89 for 30 minutes and washed with PBS. Then, immediately, the cells were stimulated with 10 nM E2 for 24 hours. […] Then, immediately, the cells were stimulated with 10 nM E2 for 24 hours. […] MCF-7 cells suppressed for expression of PKCα by siRNA method were treated with 10 μM ERAP1 peptide. Then, immediately, the cells were stimulated with 10 nM E2 for 24 hours. The cells were fractionated into cytoplasm and nuclear fractions by specific gravity centrifugation.

ERα = ERα down-regulation and polyubiquitination in MCF-7 cells; type: cell-based, human; conditions: MCF-7, E2 in the presence of MG132, no peptide
Description: FIG. 4-5 is a diagram illustrating that the ERAP1-peptide promotes nuclear translocation of PHB2. […] Then, the protein level and the mRNA level for the expression of ERα were obtained by Western blotting (the upper panel: Protein) and semi-quantitative RT-PCR (the lower panel: mRNA), respectively. β-actin is a loading control for each. […] MCF-7 cells were treated with the ERAP1-peptide and/or E2 in the presence of 1 μM MG-132 for 1 hour. Then, the cell lysate was immunoprecipitated with anti-ERα antibody.
Down-regulation of ERα was evaluated by semi-quantitative reverse transcription PCR. Complete RNA was extracted using RNeasy Mini purification kit (Qiagen) from E2-treated cells in the presence or in the absence of the ERAP1 peptide, and reverse-transcribed into cDNA using Superscript II reverse transcriptase (Invitrogen), oligo dT primer (nvitrogen) and 25 mM dNTP Mixture (Invitrogen). mRNAs of ERα and β-actin were measured with GeneAmp PCR system (Applied Biosystems, Foster, Calif., USA). The primers are as described below: […]

[2] = tested on: transcriptional activity of ERα (AP-1); experiment: AP-1-luciferase reporter assay in MCF-7 cells; type: cell-based, human; conditions: 10 nM E2 24 hours
Description: (§1) FIG. 3-3 is as diagram illustrating the results of the luciferase assay by which the inhibition effect of the ERAP1-peptide was evaluated. MCF-7 cells temporarily transfected with an ERE-luciferase reporter vector (F) or an AP-1-luciferase reporter vector (F) were treated with the ERAP1-peptide, the scramble peptide or the mutant peptide in the concentrations shown in the […]. Then, immediately, the cells were stimulated with 10 nM E2 for 24 hours. TAM indicates the tamoxifen treatment.
(§2) FIG. 4-3 is a diagram illustrating that the ERAP1-peptide promotes nuclear translocation of PHB2. (C) and (D) are figures that show the results of the luciferase assay by which the inhibition effect of the ERAP1-peptide on the ERα transcriptional activity was evaluated. MCF-7 cells temporarily transfected with an ERE-luciferase reporter vector (C) or an AP-1-luciferase reporter vector (D) were treated with the ERAP1-peptide in the concentrations shown in the figure or 10 nM tamoxifen. Then, immediately, the cells were stimulated with 10 nM E2 thr 24 hours.
(§3) For ERE reporter assay, MCF-7 cells were transfected with ERE reporter (SABiosciences, Frederick, Md., USA) in accordance with the instruction of the manufacturer. For AP-1 reporter assay, MCF-7 cells were transfected with AP-1 reporter (mouse IL-11 promoter comprising two tandem AP-1 sites subcloned into PGL2-basic vector), c-fos, c-Jun and pRL-TK as an internal standard. After 16 hours from the transfection, the culture medium was exchanged with an assay culture medium (Opti-MEM, 10% FBS, 0.1 mM NEAA, 0.1 mM Sodium pyruvate and 10 μg/ml insulin) After 24 hours from the transfection, the cells were treated with E2 and/or the ERAP1-peptide or 24 hours. The cells were harvested, and the activities of luciferase and Renilla-luciferase were evaluated using Promega dual luciferase reporter assay (Tokyo, Japan). In consideration of the transfection efficiency, all of the data were standardized by the activity of Renilla-luciferase.

[3] = target: T1, binding of inherent ERAP1 and inherent PHB2/REA (Homo sapiens, UniProt Q99623); experiment: Inhibition of ERAP1-PHB2/REA binding in cells, immunoprecipitation-Western blotting; type: cell-based; conditions: MCF-7 and KPL-3C cells; 10 μM peptide; 10 nM E2 24 hours
T1 construct: endogenous in cells; host or cells: MCF-7 and KPL-3C breast cancer cells
T1 sequence (Q99623 2-299 limits assumed): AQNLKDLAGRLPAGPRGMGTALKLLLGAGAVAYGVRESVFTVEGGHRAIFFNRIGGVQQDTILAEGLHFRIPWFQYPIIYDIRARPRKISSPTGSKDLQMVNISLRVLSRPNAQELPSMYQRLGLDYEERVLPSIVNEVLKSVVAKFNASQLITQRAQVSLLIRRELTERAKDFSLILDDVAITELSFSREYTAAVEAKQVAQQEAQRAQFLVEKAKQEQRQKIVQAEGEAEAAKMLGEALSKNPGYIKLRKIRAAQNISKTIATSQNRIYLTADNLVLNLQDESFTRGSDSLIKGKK

[4] = tested on: transcriptional activity of ERα (ERE); experiment: ERE-luciferase reporter assay in MCF-7 cells; type: cell-based, human; conditions: 10 nM E2 24 hours
Description: FIG. 3-2 is a diagram illustrating promotion effect of PHB2 nuclear translocation and suppression effect of the transcriptional activation of ER by ERAP1-peptide treatment. (C) illustrates representative images of stained immune cells, showing the localization of the ERAP1-peptide (HA-tagged ERAP1-peptide) and PHB2. MCF-7 cells were treated with 10 μM HA-tagged ERAP1-peptide for 24 hours in the presence or in the absence of 10 nM E2. After the immobilization, the cells were subjected to immunonfluorescent staining using an anti-HA antibody, an anti-PHB2 antibody and DAPI (for discriminating the nucleus). The arrow indicates the nuclear-translocated ERAP1-peptide. […] Then, immediately, the cells were stimulated with 10 nM E2 for 24 hours. TAM indicates the tamoxifen treatment.
as §1, §2, §3

MCF-7 cells = experiment: E2-dependent cell proliferation assay (MTT/CCK-8), MCF-7; type: cell-based, human; conditions: 10 nM E2, up to 24 hours
Description: FIG. 6-1 is a diagram illustrating that ERAP1-peptide treatment suppresses ERα-dependent cell proliferation of breast cancer cell lines. (A) and (B) show the results of MTT assay by which the inhibition effect of the ERAP1-peptide in the E2-dependent cell proliferation was evaluated. MCF-7 cells were treated with the ERAP1-peptide (A, B) the ERAP1-scramble peptide (B) or the ERAP1-mutant peptide (B).
FIG. 7-1 is a diagram illustrating that ERAP1-peptide treatment suppresses ERα-dependent cell proliferation of breast cancer cell lines. […] KPL-3C cells were treated with the ERAP1-peptide, the scramble peptide or the mutant peptide. Then, immediately, the cells were stimulated with 10 nM E2 for 24 hours. […] Then, immediately, the cells were stimulated with 10 nM E2. Then, the ERAP1-peptide was added every day for […]. […] The arrow indicates addition of the ERAP1-peptide.
FIG. 7-3 is a diagram illustrating that ERAP1-peptide treatment suppresses ERα-dependent cell proliferation of breast cancer cell lines. […] MCF-7 cells were treated with 10 μM ERAP1-peptide. Then, immediately, the cells were stimulated with 10 nM E2 (white square). Then, 10 μM ERAP1-peptide was added every day for four days (black square).
FIG. 20 is a diagram illustrating the results of evaluations for the influence of the difference of the sequence on E2-dependent cell proliferation suppression effect. […] Then, immediately, the cells were stimulated with E2 for 24 hours.
MCF-7 cells were suspended in MEM (Invitrogen, Carlsbad, Calif., USA) reinforced with 10% FBS (Nichirei Biosciences, Tokyo, Japan), 1% antibiotic/antimycotic solution (Invitrogen), 0.1 mM NEAA (Tnvitrogen), 1 mM sodium pyruvate and 10 μg/ml insulin (Sigma, St. Louis, Mo., USA). Then, the cell suspension was seeded in a 48-well plate (2×10^4 cells/200 μl), a 24-well plate (1×10^5 cells/1 ml), a 6-well plate (5×10^5 cells/2 ml) or 10 cm dish (2×10^6 cells/10 ml). The cells were maintained at 37° C. in humidified atmosphere containing 5% carbon dioxide. On the next day of the seeding, the culture medium was exchanged with phenol red-free DMEM/F12 (Invitrogen) reinforced with FBS, an antibiotic/antimycotic solution, NEAA, sodium pyruvate and insulin. After 24 hours, the cells were treated with 10 nM 17β estradiol (E2, Sigma). The ERAP-1 peptide was added just before the E2 stimulation in the inhibition test.
Using Cell-Counting Kit-8 (CCK-8, Dojindo, Kumamoto, Japan), the cell proliferation assay was performed. […] Then, the absorbance at 450 nm was measured and the number of living cells in each well was calculated.
The cell proliferation assay was evaluated using Cell-Counting Kit-8 (CCK-8, Dojindo, Kumamoto, Japan). […] Then, 100 μl from each well was moved to a 96-well plate, and the absorbance at 450 nm was measured with a microplate reader.

[5] = H-89 30 minutes, then E2 24 hours
[6] = comparison with siPKA, increasing dose of H-89

Compound: O=S(=O)(NCCNC/C=C/c1ccc(Br)cc1)c1cccc2cnccc12 [H-89]
- phosphorylation of the threonine residue of ERAP1 [1, 5]: decreased in dose-dependent manner
- phosphorylations of the serine and tyrosine residues of ERAP1 [1, 5]: remarkably decreased at 0.5 μM
- Ser39 phosphorylation of PHB2/REA after E2 treatment [1, 6]: as the dose of H-89 increased, Ser39 phosphorylation of PHB2/REA also decreased
- phosphorylation of the serine residue of ERAP1 after E2 treatment [1, 6]: as the dose of H-89 increased, disappearance of the phosphorylation was confirmed
- phosphorylation of Ser39 of PHB2/REA ([1]; stimulated by E2 and treated with H-89, no peptide): remarkable recovery was recognized
- phosphorylation of Ser39 of PHB2/REA ([1]; with ERAP-peptide, 20 μM H-89): the phosphorylation completely disappeared

Compound: CC(C)C[C@@H](C=O)NC(=O)[C@H](CC(C)C)NC(=O)[C@H](CC(C)C)NC(=O)OCc1ccccc1 [MG132, reference compound] (Cbz-Leu-Leu-Leu-aldehyde)
- protein decrease and polyubiquitination of ERα with E2 (ERα): the protein decrease of ERα was suppressed and polyubiquitination of ERα was recognized

Compound: AMLSALTLALRQR (SEQ ID NO: 29) (ERAP1-mutant peptide)
- transcriptional activity of ERα in AP-1 [2]: no change was recognized
- inhibition of the binding of inherent ERAP1 and inherent PHB2/REA [3]: not recognized in any of the cells
- transcriptional activity of ERα in ERE [4]: no change was recognized

Compound: ATLSQMLSDLTLQ (SEQ ID NO: 30) (ERAP1 dominant negative peptide) [ERAP1-peptide-2, 161-173 amino acid residues of ERAP1]
- E2-dependent cell proliferation (MCF-7 cells): suppressed the E2-dependent cell proliferation in dose-dependent manner
